Experiments:
Dvl-3 PDZ [1] = molecular target: T1, Dvl-3 PDZ (Homo sapiens, UniProt Q92997); assay: NMR 1H-15N HSQC chemical shift perturbation; format: binding; conditions: Dvl-3 PDZ; average of the three strongest shifting cross peaks
T1 construct: spectra of Dvl-3 PDZ in the absence and presence of the compound; His-tag (cleaved yes); made in house
T1 sequence (Q92997 243-336): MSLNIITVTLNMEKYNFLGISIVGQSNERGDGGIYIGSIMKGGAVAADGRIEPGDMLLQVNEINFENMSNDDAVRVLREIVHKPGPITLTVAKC
Protocol: The results of virtual screening were checked experimentally by comparing 2D ^1H-^15N HSQC (heteronuclear single quantum correlation) spectra of Dvl-3 PDZ in the absence and presence of the compound to elucidate ligand-induced changes of chemical shifts. Chemical shift perturbation differences ( Δ CSP, representing the average of the three strongest shifting cross peaks according to Eq. 1) were evaluated in cases where the residues responding strongest are inside the area defined by Fig. 1a. […] In most cases, the signals of residues S263, V287, and R320 (Fig. 1a) within the conserved binding site were most strongly perturbed (Fig. S2). With the Δ CSP of 0.12 ppm, the isoleucine-derived compound 1 ((2,3-dihydrobenzo[b][1,4]dioxin-6-yl)sulfonyl)-L-isoleucine containing a sulfonamide moiety was detected initially as one of the best “hits” according to chemical shift changes. The sulfonamide is a well-known moiety in drug discovery (Mathvink et al., 1999; Wu et al., 1999; Sleight et al., 1998; O'Brien et al., 2000; Tellew et al., 2003).
Two-dimensional ^1H-^15N HSQC spectra were used to screen a library of 212 compounds designed by the company Enamine for PDZ domains. 50 µM of ^15N -labelled protein samples was prepared in a 20 mM sodium phosphate buffer, containing 50 mM sodium chloride, 0.02 % ( w/v ) NaN3 , at pH 7.4. Stock solutions of small molecules were prepared in DMSO-d6 at a concentration of 160 mM. A ^1H-^15N HSQC spectrum of Dvl PDZ was acquired at 300 K with 5 % DMSO-d6 in the absence of ligand as reference spectrum. Mixtures of 16 compounds were added to ^15N -labelled Dvl PDZ at eightfold molar excess each. The final concentration of DMSO-d6 in the protein–ligand solutions was 5 %. Spectra were acquired with eight scans and 256 points in the indirect dimension. […] The active compound was obtained through successive deconvolution. Experiments were recorded on a Bruker DRX600 spectrometer equipped with a triple-resonance cryoprobe. The preparation of samples was done automatically by a Tecan Genesis RSP 150 pipetting robot. Spectra were analysed using the programs TOPSPIN and SPARKY (Goddard and Kneller, 2003).
50 µM of ^15N -labelled protein samples was prepared in a 20 mM sodium phosphate buffer containing 50 mM sodium chloride, 0.02 % ( w/v ) NaN3 , at pH 7.4. Stock solutions of small molecules were prepared in DMSO-d6 at a concentration of 160 mM. A ^1H-^15N HSQC spectrum of Dvl PDZ was acquired at 300 K with 5 % DMSO-d6 in the absence of ligand as reference spectrum. Mixtures of 16 compounds were added to ^15N -labelled Dvl PDZ at eightfold molar excess each. The final concentration of DMSO-d6 in the protein–ligand solutions was 5 %. Spectra were acquired with eight scans and 256 points in the indirect dimension.
The active compound was obtained through successive deconvolution. Experiments were recorded on a Bruker DRX600 spectrometer equipped with a triple-resonance cryoprobe. The preparation of samples was done automatically by a Tecan Genesis RSP 150 pipetting robot. Spectra were analysed using the programs TOPSPIN and SPARKY.

Dvl-3 PDZ [2] = molecular target: T1, Dvl-3 PDZ; assay: Binding constant by NMR titration; conditions: by NMR; mean ± SD of at least six residues; read-out: K D Dvl-3 PDZ
Description: (§1) K D is the equilibrium dissociation constant.

Dvl-3 PDZ [3] = assay: Binding constant by NMR titration; design: species or system human; conditions: from NMR K D values
Description: as §1

Dvl-1 PDZ [4] = molecular target: T2, Dvl-1 PDZ (Homo sapiens, UniProt O14640, C338S/V250I); assay: Binding constant by NMR titration; design: made in house; host or cells: E. coli BL21 (DE3); conditions: mean ± SD of at least six residues, read-out: K D Dvl-1 PDZ
T2 sequence (O14640 245-338 V250I/C338S): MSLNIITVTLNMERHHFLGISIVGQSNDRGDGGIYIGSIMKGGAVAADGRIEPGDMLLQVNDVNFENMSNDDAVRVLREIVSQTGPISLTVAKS
Protocol: Chemical shift perturbations were obtained by comparing the ^1H-^15N backbone resonances of protein alone to those of protein–ligand complex. […] 1 Δδ=[ΔδH]^2+[ΔδN5]^2/2 Here ΔδN and ΔδH are the amide nitrogen and amide proton chemical shift differences between the free and the bound states of the protein. In order to estimate binding constants, titration experiments monitored by NMR were done. A series of ^1H-^15N HSQC were recorded as a function of ligand concentration. Residues showing a continuous chemical shift change and for which the intensity remained strong were classified as being in fast exchange. […] [LT] is the total concentration of the compound, and [PT] is the total concentration of the protein. K D is the equilibrium dissociation constant. The K D values are reported as means ± standard deviations of at least six residues influenced upon binding of the ligand.

Dvl-1 PDZ [5] = molecular target: Dvl-1 PDZ; design: method as in Kim et al., 2016; conditions: value from literature; ref Kim et al., 2016; read-out: K D Dvl-1 PDZ; cited from earlier work

| Chemical shift perturbation ΔCSP (Dvl-3 PDZ [1]) | Kd (Dvl-3 PDZ [2]) | discrimination between Dvl-3 PDZ and Dvl-1 PDZ (in words) (Dvl-3 PDZ [3]) | Kd (Dvl-1 PDZ [4]) | Compound | Kd (Dvl-1 PDZ [5]) |
| --- | --- | --- | --- | --- | --- |
| > 0.2 ppm | 141 ± 14.1 µM | did not distinguish | 160 ± 14.6 µM | O=C(O)c1cc(F)ccc1NS(=O)(=O)c1ccc2c(c1)CCCC2 [Compound 5] | – |
| – | – | – | – | CCOC(=O)c1cc2cc(O)ccc2n1CC(=O)NCCN1CCCCC1 [Ky-02327, ethyl 5-hydroxy-1-(2-oxo-2-((2-(piperidin-1-yl)ethyl)amino)ethyl)-1H-indole-2-carboxylate] | 8.3 ± 0.8 µM |
